Where “and” joins values, the source holds several entries; their conditions need not be identical. Equal values may be shown once.
System: HeLa cells
Test: Sphingolipid content of treated HeLa cells by quantitative mass spectrometry
Type: cell-based
Details: for Cer16 / Cer18 / Cer20 / Cer22 / Cer24 / Cer24:1 / Cer total / S1P / SM16 / SM18 / SM20 / SM22 / SM24 / SM24:1 / SM total / Sph / ratio total SM/Cer: HeLa, 42h, single replicates; for Cer16 / Cer18 / Cer20 / Cer22 / Cer24 / Cer24:1 / Cer total / S1P / SM16 / SM18 / SM20 / SM22 / SM24 / SM24:1 / SM total / Sph: 500.000 cells per sample
Protocol: 5.2 Cellular experiment for lipidomic analysis
Hela cells were cultured in six well plates (177000 cells per well) under standard growth conditions (DMEM with 4mM L-glutamine, 10% FBS, 1% Penicillin-Streptomycin; CO2 incubator with […]
37°C, 5% CO2). […]
After incubation, […]
the adherent cells were washed twice with ice-cold PBS and harvested by treatment with trypsin.
Cells were counted using a Countess II cell counter ( Invitrogen) and adjusted to 500.000 cells per sample. Each sample was then treated as described below.
6. Details for experimental lipidomics
Cells were subjected to lipid extraction using 1.5 mL methanol/chloroform (2:1, v:v) as described. The extraction solvent contained C17-ceramide (Cer17) and C16 -d31-sphingomyelin (d31-SM16) (both Avanti Polar Lipids, Alabaster, USA) as internal standards. Chromatographic separations were achieved on a 1260 Infinity HPLC (Agilent Technologies, Waldbronn, Germany) equipped with a Poroshell 120 EC-C8 column (3.0 × 150 mm, 2.7 µm; Agilent Technologies). A mobile phase system consisting of water (solvent A) and acetonitrile/methanol (1:1, v:v; solvent B), both acidified with 0.1% formic acid, was used for gradient elution at an initial composition of 40:60 (A:B, v:v) and a flow rate of 0.5 mL/min. MS/MS analyses were carried out using a 6490 triple-quadrupole mass spectrometer (Agilent Technologies) operating in the positive electrospray ionization mode (ESI+). The following ion source parameters were set: sheath gas temperature, 375 °C; sheath gas flow, 12 L/min of nitrogen; nebulizer pressure, 30 psi; drying gas temperature, 200 °C; drying gas flow, 15 L/min of nitrogen; capillary voltage, 4000 V; nozzle voltage, 1500 V; iFunnel high pressure RF voltage, 150 V and iFunnel low pressure RF voltage, 60 V. The following mass transitions were recorded (collision energies of 25 eV for all transitions): ceramides: m/z […]
with MassHunter Software (Agilent Technologies). Significance of differences between two samples was calculated by student’s t -test. Asterisks indicate significant differences between treated and untreated samples: * p<0.05; ** p<0.01; *** p<0.005.
Table S1. Sphingolipid content of treated cells.
(1 picture or pasted object on this page, not shown here)

CCCC(=O)OCOC(=O)C1=C(C)NC(C)=C(C(=O)OC)C1c1cccc(Cl)c1Cl (centres unmarked) [6B11, Clevidipine butyrate]
effect on SM/Cer rate (HeLa cells): dramatically increased
effect on total sphingomyelin (HeLa cells, 48 hours, serum-reduced medium): no significant changes
Cer16 (1 µM): 35,47 pmol/sample and 30,33 pmol/sample and 32,28 pmol/sample
Cer18 (1 µM): 3,21 pmol/sample and 3,62 pmol/sample and 2,31 pmol/sample
Cer20 (1 µM): 0,82 pmol/sample and 1,87 pmol/sample and 0,75 pmol/sample
Cer22 (1 µM): 6,64 pmol/sample and 6,96 pmol/sample and 5,21 pmol/sample
Cer24 (1 µM): 21,95 pmol/sample and 20,24 pmol/sample and 18,20 pmol/sample
Cer24:1 (1 µM): 41,58 pmol/sample and 36,60 pmol/sample and 35,42 pmol/sample
Cer total (1 µM): 109,68 pmol/sample and 101,56 pmol/sample and 92,23 pmol/sample
S1P (1 µM): 1,30 pmol/sample (2×) and 1,12 pmol/sample
SM16 (1 µM): 1664,57 pmol/sample and 1753,19 pmol/sample and 1827,88 pmol/sample
SM18 (1 µM): 49,35 pmol/sample and 48,17 pmol/sample and 50,13 pmol/sample
SM20 (1 µM): 16,44 pmol/sample and 17,01 pmol/sample and 16,12 pmol/sample
SM22 (1 µM): 97,77 pmol/sample and 109,23 pmol/sample and 104,57 pmol/sample
SM24 (1 µM): 148,40 pmol/sample and 164,36 pmol/sample and 157,65 pmol/sample
SM24:1 (1 µM): 734,55 pmol/sample and 781,78 pmol/sample and 776,18 pmol/sample
SM total (1 µM): 2711,09 pmol/sample and 2873,72 pmol/sample and 2932,53 pmol/sample
Sph (1 µM): 2,93 pmol/sample and 3,14 pmol/sample and 2,69 pmol/sample
ratio total SM/Cer (1 µM): 29,4 and 26,2 and 28,9
Cer16 (2.5 µM): 31,11 pmol/sample and 34,56 pmol/sample and 32,33 pmol/sample
Cer18 (2.5 µM): 2,90 pmol/sample and 3,36 pmol/sample and 2,45 pmol/sample
Cer20 (2.5 µM): 1,10 pmol/sample and 1,04 pmol/sample and 0,67 pmol/sample
Cer22 (2.5 µM): 6,09 pmol/sample and 6,54 pmol/sample and 4,24 pmol/sample
Cer24 (2.5 µM): 19,85 pmol/sample and 19,17 pmol/sample and 13,13 pmol/sample
Cer24:1 (2.5 µM): 35,16 pmol/sample and 36,98 pmol/sample and 34,53 pmol/sample
Cer total (2.5 µM): 96,21 pmol/sample and 101,65 pmol/sample and 87,36 pmol/sample
S1P (2.5 µM): 1,11 pmol/sample (2×) and 1,10 pmol/sample
SM16 (2.5 µM): 1754,78 pmol/sample and 1844,30 pmol/sample and 1802,54 pmol/sample
SM18 (2.5 µM): 52,01 pmol/sample and 48,63 pmol/sample and 47,35 pmol/sample
SM20 (2.5 µM): 16,63 pmol/sample and 16,52 pmol/sample and 14,33 pmol/sample
SM22 (2.5 µM): 104,73 pmol/sample and 101,64 pmol/sample and 87,68 pmol/sample
SM24 (2.5 µM): 164,67 pmol/sample and 154,96 pmol/sample and 126,92 pmol/sample
SM24:1 (2.5 µM): 701,62 pmol/sample and 752,78 pmol/sample and 753,00 pmol/sample
SM total (2.5 µM): 2780,44 pmol/sample and 2845,61 pmol/sample and 2919,05 pmol/sample
Sph (2.5 µM): 3,54 pmol/sample and 2,83 pmol/sample and 2,99 pmol/sample
ratio total SM/Cer (2.5 µM): 31,8 and 29,6 and 28,7
Cer16 (5 µM): 29,66 pmol/sample and 34,26 pmol/sample and 31,66 pmol/sample
Cer18 (5 µM): 2,65 pmol/sample and 3,21 pmol/sample and 2,71 pmol/sample
Cer20 (5 µM): 0,74 pmol/sample and 0,90 pmol/sample and 0,79 pmol/sample
Cer22 (5 µM): 5,38 pmol/sample and 6,67 pmol/sample and 6,09 pmol/sample
Cer24 (5 µM): 17,46 pmol/sample and 20,37 pmol/sample and 20,18 pmol/sample
Cer24:1 (5 µM): 36,92 pmol/sample and 40,53 pmol/sample and 39,54 pmol/sample
Cer total (5 µM): 92,81 pmol/sample and 105,93 pmol/sample and 100,96 pmol/sample
S1P (5 µM): 1,11 pmol/sample and 1,25 pmol/sample and 1,08 pmol/sample
SM16 (5 µM): 1762,30 pmol/sample and 1782,59 pmol/sample and 1722,69 pmol/sample
SM18 (5 µM): 53,21 pmol/sample and 52,89 pmol/sample and 50,26 pmol/sample
SM20 (5 µM): 17,74 pmol/sample and 18,28 pmol/sample and 16,92 pmol/sample
SM22 (5 µM): 109,54 pmol/sample and 111,84 pmol/sample and 106,91 pmol/sample
SM24 (5 µM): 166,35 pmol/sample and 172,87 pmol/sample and 164,46 pmol/sample
SM24:1 (5 µM): 783,66 pmol/sample and 796,71 pmol/sample and 771,15 pmol/sample
SM total (5 µM): 2892,80 pmol/sample and 2935,19 pmol/sample and 2832,39 pmol/sample
Sph (5 µM): 2,83 pmol/sample and 2,13 pmol/sample and 3,03 pmol/sample
ratio total SM/Cer (5 µM): 31,2 and 27,7 and 28,1

CCCCCCCCCCCC(=O)NC(CO)CC(O)c1ccccc1 (centres unmarked) [HPA-12, N-(3Hydroxy-1-hydroxymethyl-3-phenylpropyl)-dodecamide]
Cer16 (1 µM): 48,20 pmol/sample and 45,94 pmol/sample and 44,92 pmol/sample
Cer18 (1 µM): 3,35 pmol/sample and 2,85 pmol/sample and 3,38 pmol/sample
Cer20 (1 µM): 1,15 pmol/sample and 0,88 pmol/sample and 1,18 pmol/sample
Cer22 (1 µM): 8,47 pmol/sample and 7,59 pmol/sample and 8,53 pmol/sample
Cer24 (1 µM): 25,47 pmol/sample and 26,70 pmol/sample and 25,58 pmol/sample
Cer24:1 (1 µM): 64,01 pmol/sample and 60,79 pmol/sample and 68,53 pmol/sample
Cer total (1 µM): 150,65 pmol/sample and 143,74 pmol/sample and 153,13 pmol/sample
S1P (1 µM): 1,34 pmol/sample and 1,27 pmol/sample and 1,52 pmol/sample
SM16 (1 µM): 1695,91 pmol/sample and 1668,53 pmol/sample and 1609,69 pmol/sample
SM18 (1 µM): 47,55 pmol/sample and 44,39 pmol/sample and 46,43 pmol/sample
SM20 (1 µM): 15,20 pmol/sample and 14,34 pmol/sample and 14,30 pmol/sample
SM22 (1 µM): 91,42 pmol/sample and 86,76 pmol/sample and 85,97 pmol/sample
SM24 (1 µM): 147,79 pmol/sample and 134,40 pmol/sample and 140,17 pmol/sample
SM24:1 (1 µM): 708,14 pmol/sample and 660,22 pmol/sample and 659,25 pmol/sample
SM total (1 µM): 2706,02 pmol/sample and 2608,64 pmol/sample and 2555,82 pmol/sample
Sph (1 µM): 3,87 pmol/sample and 3,57 pmol/sample and 3,94 pmol/sample
ratio total SM/Cer (1 µM): 17,7 and 17,3 and 17,8
Cer16 (2.5 µM): 45,72 pmol/sample and 45,34 pmol/sample and 45,94 pmol/sample
Cer18 (2.5 µM): 2,82 pmol/sample and 3,05 pmol/sample and 2,77 pmol/sample
Cer20 (2.5 µM): 0,99 pmol/sample and 0,90 pmol/sample and 0,94 pmol/sample
Cer22 (2.5 µM): 8,93 pmol/sample (2×) and 7,27 pmol/sample
Cer24 (2.5 µM): 29,39 pmol/sample and 22,20 pmol/sample and 31,70 pmol/sample
Cer24:1 (2.5 µM): 64,09 pmol/sample and 55,48 pmol/sample and 66,75 pmol/sample
Cer total (2.5 µM): 151,94 pmol/sample and 134,23 pmol/sample and 157,03 pmol/sample
S1P (2.5 µM): 1,60 pmol/sample and 1,73 pmol/sample and 1,58 pmol/sample
SM16 (2.5 µM): 1489,44 pmol/sample and 1440,97 pmol/sample and 1448,69 pmol/sample
SM18 (2.5 µM): 53,85 pmol/sample and 43,84 pmol/sample and 45,37 pmol/sample
SM20 (2.5 µM): 20,27 pmol/sample and 13,88 pmol/sample and 14,55 pmol/sample
SM22 (2.5 µM): 75,95 pmol/sample and 76,48 pmol/sample and 75,20 pmol/sample
SM24 (2.5 µM): 129,06 pmol/sample and 114,60 pmol/sample and 121,10 pmol/sample
SM24:1 (2.5 µM): 524,32 pmol/sample and 581,92 pmol/sample and 555,40 pmol/sample
SM total (2.5 µM): 2229,23 pmol/sample and 2350,50 pmol/sample and 2245,18 pmol/sample
Sph (2.5 µM): 2,13 pmol/sample and 3,27 pmol/sample and 2,40 pmol/sample
ratio total SM/Cer (2.5 µM): 14,2 and 15,5 and 16,7
Cer16 (5 µM): 43,83 pmol/sample and 46,26 pmol/sample and 43,34 pmol/sample
Cer18 (5 µM): 2,50 pmol/sample and 2,62 pmol/sample and 2,51 pmol/sample
Cer20 (5 µM): 0,74 pmol/sample and 0,81 pmol/sample and 0,73 pmol/sample
Cer22 (5 µM): 6,88 pmol/sample and 6,54 pmol/sample and 6,85 pmol/sample
Cer24 (5 µM): 20,93 pmol/sample and 21,64 pmol/sample and 23,60 pmol/sample
Cer24:1 (5 µM): 53,37 pmol/sample and 55,90 pmol/sample and 57,30 pmol/sample
Cer total (5 µM): 128,26 pmol/sample and 133,78 pmol/sample and 134,34 pmol/sample
S1P (5 µM): 1,43 pmol/sample and 1,97 pmol/sample and 1,45 pmol/sample
SM16 (5 µM): 1306,31 pmol/sample and 1249,58 pmol/sample and 1356,77 pmol/sample
SM18 (5 µM): 41,78 pmol/sample and 39,06 pmol/sample and 41,13 pmol/sample
SM20 (5 µM): 12,76 pmol/sample and 12,48 pmol/sample and 12,54 pmol/sample
SM22 (5 µM): 68,87 pmol/sample and 67,07 pmol/sample and 70,68 pmol/sample
SM24 (5 µM): 101,53 pmol/sample and 101,48 pmol/sample and 113,95 pmol/sample
SM24:1 (5 µM): 471,40 pmol/sample and 487,46 pmol/sample and 521,22 pmol/sample
SM total (5 µM): 2002,66 pmol/sample and 1957,13 pmol/sample and 2116,29 pmol/sample
Sph (5 µM): 3,33 pmol/sample and 3,81 pmol/sample and 3,47 pmol/sample
ratio total SM/Cer (5 µM): 15,6 and 14,6 and 15,8

From publication PMC7756341, “Liposomal FRET Assay Identifies Potent Drug‐Like Inhibitors of the Ceramide Transport Protein (CERT)” (Chemistry (Weinheim an Der Bergstrasse, Germany), 2020)
